Laboratory results: patent US7138361B2, “Herbicidal heterocycles” (E. I. du Pont de Nemours and Company, priority 2000, dated 2006)

Experiments:
Type in all cases: in vivo
[1] = tested on: smallflower flatsedge (Cyperus difformis); assay: Test C flooded paddy test; details: for Flatsedge plant response rating: Flooded Paddy, scale 0 to 100, 0 no effect, 100 complete control; for Plant response rating, Flatsedge: flooded paddy test, scale 0 to 100 (0 no effect, 100 complete control)
Procedure, shortened: (§1)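 Rice and three paddy weeds were grown to the 2-leaf stage under flooded conditions, then treated and kept in a greenhouse for 12–14 days. Response was rated visually against untreated controls on a 0–100 scale, where 100 is complete control.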

[2] = tested on: duck salad (Heteranthera limosa); assay: Test C flooded paddy test; details: for Ducksalad plant response rating: Flooded Paddy, scale 0 to 100, 0 no effect, 100 complete control; for Plant response rating, Ducksalad: flooded paddy test, scale 0 to 100 (0 no effect, 100 complete control)
Procedure, shortened: as §1

[3] = tested on: rice (Oryza saliva); assay: Test C flooded paddy test; details: for Rice plant response rating: Flooded Paddy, scale 0 to 100, 0 no effect, 100 complete control; for Plant response rating, Rice: flooded paddy test, scale 0 to 100 (0 no effect, 100 complete control)
Procedure, shortened: as §1

[4] = tested on: barnyardgrass (Echinochloa crus-galli); assay: Test C flooded paddy test; details: for Barnyardgrass plant response rating: Flooded Paddy, scale 0 to 100, 0 no effect, 100 complete control; for Plant response rating, Barnyardgrass: flooded paddy test, scale 0 to 100 (0 no effect, 100 complete control)
Procedure, shortened: as §1

[5] = tested on: Sunflower; assay: Test C preemergence; details: Rate 250 g/ha, scale 0 to 100, 0 no effect, 100 complete control
[6] = tested on: morning glory (Ipomoea hederacea); assay: Test B postemergence; details: 13 to 15 days
Procedure, shortened: (§2)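 Preemergence: seeds planted and treated with test chemicals in non-phytotoxic solvent with surfactant; postemergence on plants 2–18 cm (1- to 4-leaf stage). Kept in greenhouse 13–15 days, then visually rated against controls on a 0 (no effect) to 100 (complete control) scale.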

[7] = tested on: pigweed (Amaranthus retroflexus); assay: Test B postemergence; details: 13 to 15 days
Procedure, shortened: as §2

[8] = tested on: velvetleaf (Abutilon theophrasti); assay: Test B postemergence; details: 13 to 15 days
Procedure, shortened: as §2

[9] = tested on: wheat (Triticum aestivum); assay: Test B postemergence; details: 13 to 15 days
Procedure, shortened: as §2

[10] = tested on: blackgrass (Alopecurus myosuroides); assay: Test B postemergence; details: 13 to 15 days
Procedure, shortened: as §2

[11] = tested on: barnyardgrass (Echinochloa crus-galli); assay: Test B postemergence; details: 13 to 15 days
Procedure, shortened: as §2

[12] = tested on: giant foxtail (Setaria faberii); assay: Test B postemergence; details: 13 to 15 days
Procedure, shortened: as §2

[13] = tested on: Surinam grass (Brachiaria decumbens); assay: Test B postemergence; details: 13 to 15 days
Procedure, shortened: as §2

[14] = tested on: corn (Zea mays); assay: Test B postemergence; details: 13 to 15 days
Procedure, shortened: as §2

[15] = tested on: morning glory (Ipomoea hederacea); assay: Test B preemergence; details: preemergence; Rate 125 g/ha; scale of 0 to 100 where 0 is no effect and 100 is complete control; 13 to 15 days
Procedure, shortened: as §2

[16] = tested on: pigweed (Amaranthus retroflexus); assay: Test B preemergence
Procedure, shortened: as §2

[17] = tested on: cocklebur (Xanthium strumarium); assay: Test B preemergence
Procedure, shortened: as §2

[18] = tested on: velvetleaf (Abutilon theophrasti); assay: Test B preemergence
Procedure, shortened: as §2

[19] = tested on: lambsquarters (Chenopodium album); assay: Test B preemergence
Procedure, shortened: as §2

[20] = tested on: crabgrass (Digitaria sanguinalis); assay: Test B preemergence
Procedure, shortened: as §2

[21] = tested on: rice (Oryza saliva); assay: Test B preemergence
Procedure, shortened: as §2

[22] = tested on: barnyardgrass (Echinochloa crus-galli); assay: Test B preemergence
Procedure, shortened: as §2

[23] = tested on: giant foxtail (Setaria faberii); assay: Test B preemergence
Procedure, shortened: as §2

[24] = tested on: Surinam grass (Brachiaria decumbens); assay: Test B preemergence
Procedure, shortened: as §2

[25] = tested on: corn (Zea mays); assay: Test B preemergence
Procedure, shortened: as §2

[26] = tested on: Nightshade; assay: Test C preemergence; details: Rate 500 g/ha, visual evaluation after 12 to 14 days
[27] = Rate 125 g/ha, scale 0 (no effect) to 100 (complete control)
[28] = Rate 500 g/ha, scale 0 to 100, 0 is no effect, 100 is complete control
[29] = Preemergence, Rate 500 g/ha, scale 0 to 100, 0 no effect, 100 complete control
[30] = preemergence, Rate 125 g/ha, scale of 0 to 100 where 0 is no effect and 100 is complete control, 13 to 15 days

CCC(C)c1ccn(C2CCN(c3cccc(OC(C)C)c3)C2=O)n1 (stereo not drawn) [Compound 83]
20: Plant response rating, Rice ([3]; Rate 62 g/ha) | Plant response rating, Rice ([3]; Rate 125 g/ha) | Plant response rating, Rice [21, 30] | Plant response rating, Corn [25, 29] | Plant response rating, Corn [25, 30]
0: Plant response rating, Sunflower [5] | Plant response rating, Morningglory [6, 27] | Plant response rating, Pigweed [7, 27] | Plant response rating, Velvetleaf [8, 27] | Plant response rating, Velvetleaf [8, 28] | Plant response rating, Wheat [9, 27] | Plant response rating, Wheat [9, 28] | Plant response rating, Blackgrass [10, 27] | Plant response rating, Blackgrass [10, 28] | Plant response rating, Barnyardgrass [11, 27] | Plant response rating, Barnyardgrass [11, 28] | Plant response rating, Foxtail, Giant [12, 27] | Plant response rating, Foxtail, Giant [12, 28] | Plant response rating, Surinam grass [13, 27] | Plant response rating, Surinam grass [13, 28] | Plant response rating, Corn [14, 27] | Plant response rating, Corn [14, 28] | Plant response rating, Morningglory [15] | Plant response rating, Cocklebur [17, 29] | Plant response rating, Cocklebur [17, 30] | Plant response rating, Velvetleaf [18, 29] | Plant response rating, Velvetleaf [18, 30]
70: Rice plant response rating ([3]; Rate 250 g/ha) | Barnyardgrass plant response rating ([4]; Rate 250 g/ha) | Plant response rating, Barnyardgrass ([4]; Rate 125 g/ha) | Plant response rating, Surinam grass [24, 30]
60: Plant response rating, Barnyardgrass ([4]; Rate 62 g/ha)
80: Rice plant response rating ([3]; Rate 500 g/ha)
40: Plant response rating, Ducksalad ([2]; Rate 62 g/ha) | Plant response rating, Ducksalad ([2]; Rate 125 g/ha)
90: Plant response rating, Flatsedge ([1]; Rate 62 g/ha) | Plant response rating, Surinam grass [24, 29]
10: Plant response rating, Morningglory [6, 28] | Plant response rating, Pigweed [7, 28]
100: Flatsedge plant response rating ([1]; Rate 250 g/ha) | Flatsedge plant response rating ([1]; Rate 500 g/ha) | Plant response rating, Flatsedge ([1]; Rate 125 g/ha) | Ducksalad plant response rating ([2]; Rate 250 g/ha) | Ducksalad plant response rating ([2]; Rate 500 g/ha) | Barnyardgrass plant response rating ([4]; Rate 500 g/ha) | Plant response rating, Pigweed [16, 29] | Plant response rating, Pigweed [16, 30] | Plant response rating, Lambsquarters [19, 29] | Plant response rating, Lambsquarters [19, 30] | Plant response rating, Crabgrass [20, 29] | Plant response rating, Crabgrass [20, 30] | Plant response rating, Rice [21, 29] | Plant response rating, Barnyardgrass [22, 29] | Plant response rating, Barnyardgrass [22, 30] | Plant response rating, Foxtail, Giant [23, 29] | Plant response rating, Foxtail, Giant [23, 30] | Plant response rating (0 to 100), Nightshade [26]
